Experimental data taken from US10710986B2, “PD-1/PD-L1 inhibitors” (Gilead Sciences, Inc., priority 2018, dated 2020).

Biological target: PD-1/PD-L1 (Homo sapiens (Human), UniProt Q9NZQ7)
Assay: PD-1/PD-L1 biochemical protein-protein interaction assay (ALPHA)
Conditions: 0.3 nM His tagged PD-L1, 2.5 nM biotinylated Fc-PD-1, 60 minutes at 25° C., read-out: IC50 PD-L1-PD1
Procedure: Binding of the protein pairs is measured using a bead based Amplified Luminescent Proximity Homogeneous Assay (ALPHA) platform. Binding of each protein pair results in proximity of the donor and acceptor beads which leads to an increase in ALPHA signal. […] Assays are performed in 25 mM Hepes (pH 7.4), 150 mM NaCl, 3.4 mM EDTA, 0.005% Tween 20, and 0.01% BSA. […] After an assay reaction time of 60 minutes at 25° C., binding was measured with addition of 20 μg/mL ALPHA assay acceptor beads (anti-His coated) and 20 µg/mL ALPHA assay donor beads (streptavidin coated). IC50 values were calculated from the fit of the dose-response curves to a four-parameter equation.

Chain of PD-1/PD-L1 (Q9NZQ7 19-238): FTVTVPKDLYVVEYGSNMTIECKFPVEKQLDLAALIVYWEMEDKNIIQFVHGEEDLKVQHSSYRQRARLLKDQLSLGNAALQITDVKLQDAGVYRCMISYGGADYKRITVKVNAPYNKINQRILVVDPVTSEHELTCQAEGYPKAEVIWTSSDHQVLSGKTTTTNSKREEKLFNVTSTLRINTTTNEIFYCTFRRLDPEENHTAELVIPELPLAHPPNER

SMILES: COc1nc(-c2cccc(-c3cccc(-c4cnc(CN5CCC[C@H]5CO)c(OC)n4)c3Cl)c2Cl)cnc1CNC[C@@H]1CCC(=O)N1 [compound 24]
- IC50: 0.179 nM

SMILES: COc1nc(-c2cccc(-c3cccc(-c4cnc(CNC[C@@H]5CCC(=O)N5)c(OC)n4)c3Cl)c2Cl)cnc1CNCCOC(N)=O [compound 25]
- IC50: 0.08 nM

SMILES: COc1nc(-c2cccc(-c3cccc(-c4cnc(CNC[C@@H]5CCC(=O)N5)c(OC)n4)c3Cl)c2Cl)cnc1CNCc1cnn(CCO)c1 [compound 26]
- IC50: 0.06 nM

SMILES: COc1nc(-c2cccc(-c3cccc(-c4cnc(CNC[C@@H]5CCC(=O)N5)c(OC)n4)c3Cl)c2Cl)cnc1CNCc1ccn(C)n1 [compound 27]
- IC50: 0.09 nM

SMILES: COc1nc(-c2cccc(-c3cccc(-c4cnc(CNC[C@@H]5CCC(=O)N5)c(OC)n4)c3Cl)c2Cl)cnc1CNCc1nc[nH]n1 [compound 28]
- IC50: 0.436 nM

SMILES: COc1nc(-c2cccc(-c3cccc(-c4cnc(CNCc5nc(C)n[nH]5)c(OC)n4)c3Cl)c2Cl)cnc1CNCc1nc(C)n[nH]1 [compound 29]
- IC50: 1.09 nM

SMILES: COc1nc(-c2cccc(-c3cccc(-c4cnc(CNCc5ccn(C)n5)c(OC)n4)c3Cl)c2Cl)cnc1CNCc1ccn(C)n1 [compound 30]
- IC50: 0.475 nM

SMILES: CCn1cc(CNCc2ncc(-c3cccc(-c4cccc(-c5cnc(CNCc6cnn(CC)c6)c(OC)n5)c4Cl)c3Cl)nc2OC)cn1 [compound 31]
- IC50: 0.334 nM

SMILES: CCn1cc(CNCc2ncc(-c3cccc(-c4cccc(-c5cnc(CNC[C@@H]6CCC(=O)N6)c(OC)n5)c4Cl)c3Cl)nc2OC)nn1 [compound 32]
- IC50: 0.187 nM

SMILES: COc1nc(-c2cccc(-c3cccc(-c4cnc(CNC[C@@H]5CCC(=O)N5)c(OC)n4)c3Cl)c2Cl)cnc1CNCCc1cnn[nH]1 [compound 33]
- IC50: 0.138 nM

SMILES: COc1nc(-c2cccc(-c3cccc(-c4cnc(CNC[C@@H]5CCC(=O)N5)c(OC)n4)c3Cl)c2Cl)cnc1CNCc1ccnn1C [compound 34]
- IC50: 0.231 nM

SMILES: COc1nc(-c2cccc(-c3cccc(-c4cnc(CNC[C@@H]5CCC(=O)N5)c(OC)n4)c3Cl)c2Cl)cnc1CNCc1c[nH]nn1 [compound 35]
- IC50: 0.191 nM

SMILES: COc1nc(-c2cccc(-c3cccc(-c4cnc(CN5C[C@@H](N)CCC5=O)c(OC)n4)c3Cl)c2Cl)cnc1CNC[C@@H]1CCC(=O)N1 [compound 36]
- IC50: 1.29 nM

SMILES: COc1nc(-c2cccc(-c3cccc(-c4cnc(CNC[C@@H]5CCC(=O)N5)c(OC)n4)c3Cl)c2Cl)cnc1CNCCNc1ccc([N+](=O)[O-])cc1 [compound 37]
- IC50: 1.7 nM

SMILES: COc1nc(-c2cccc(-c3cccc(-c4cnc(CNC(CO)c5nn[nH]n5)c(OC)n4)c3Cl)c2Cl)cnc1CNC[C@@H]1CCC(=O)N1 (some centres unmarked) [compound 38]
- IC50: 0.66 nM

SMILES: COc1nc(-c2cccc(-c3cccc(-c4cnc(CN[C@H]5CCNC5=O)c(OC)n4)c3Cl)c2Cl)cnc1CNC[C@@H]1CCC(=O)N1 [compound 39]
- IC50: 0.39 nM

SMILES: COc1nc(-c2cccc(-c3cccc(-c4cnc(CN5C[C@@H](F)C[C@H]5CO)c(OC)n4)c3Cl)c2Cl)cnc1CNC[C@@H]1CCC(=O)N1 [compound 40]
- IC50: 0.238 nM

SMILES: COc1nc(-c2cccc(-c3cccc(-c4cnc(CN5CCNC(=O)C5)c(OC)n4)c3Cl)c2Cl)cnc1CNC[C@@H]1CCC(=O)N1 [compound 41]
- IC50: 0.083 nM

SMILES: COc1nc(-c2cccc(-c3cccc(-c4cnc(CNC[C@@H]5CCC(=O)N5)c(OC)n4)c3Cl)c2Cl)cnc1CNCCS(=O)(=O)O [compound 42]
- IC50: 3.42 nM

SMILES: COc1nc(-c2cccc(-c3cccc(-c4cnc(CNC[C@@H]5CCC(=O)N5)c(OC)n4)c3Cl)c2Cl)cnc1CNCCS(N)(=O)=O [compound 43]
- IC50: 0.083 nM

SMILES: COc1nc(-c2cccc(-c3cccc(-c4cnc(CNC[C@@H]5CCC(=O)N5)c(OC)n4)c3Cl)c2Cl)cnc1CNCCNC(N)=O [compound 44]
- IC50: 0.113 nM

SMILES: COc1nc(-c2cccc(-c3cccc(-c4cnc(CNC[C@@H]5CCC(=O)N5)c(OC)n4)c3Cl)c2Cl)cnc1CNCCC(N)=O [compound 45]
- IC50: 0.064 nM

SMILES: COc1nc(-c2cccc(-c3cccc(-c4cnc(CN(C)C)c(OC)n4)c3Cl)c2Cl)cnc1CNC[C@@H]1CCC(=O)N1 [compound 46]
- IC50: 0.081 nM

SMILES: COc1nc(-c2cccc(-c3cccc(-c4cnc(CNC[C@@H]5CCC(=O)N5)c(OC)n4)c3Cl)c2Cl)cnc1CNCC(O)C(F)(F)F (some centres unmarked) [compound 47]
- IC50: 0.16 nM

SMILES: CCN(CCc1cn[nH]c1)Cc1ncc(-c2cccc(-c3cccc(-c4cnc(CNC[C@@H]5CCC(=O)N5)c(OC)n4)c3Cl)c2Cl)nc1OC [compound 48]
- IC50: 0.822 nM

SMILES: COc1nc(-c2cccc(-c3cccc(-c4cnc(CNC[C@@H]5CCC(=O)N5)c(OC)n4)c3Cl)c2Cl)cnc1CNCCc1cn[nH]c1 [compound 49]
- IC50: 0.356 nM

SMILES: COc1nc(-c2cccc(-c3cccc(-c4cnc(CN5CC6(CNC(=O)O6)C5)c(OC)n4)c3Cl)c2Cl)cnc1CNC[C@@H]1CCC(=O)N1 [compound 50]
- IC50: 0.259 nM

SMILES: COc1nc(-c2cccc(-c3cccc(-c4cnc(CN(C)CC(N)=O)c(OC)n4)c3Cl)c2Cl)cnc1CNC[C@@H]1CCC(=O)N1 [compound 51]
- IC50: 0.301 nM

SMILES: COc1nc(-c2cccc(-c3cccc(-c4cnc(CN5CC6CC6(CO)C5)c(OC)n4)c3Cl)c2Cl)cnc1CNC[C@@H]1CCC(=O)N1 (some centres unmarked) [compound 52]
- IC50: 0.17 nM

SMILES: COc1nc(-c2cccc(-c3cccc(-c4cnc(CN5CC6CC5(CO)C6)c(OC)n4)c3Cl)c2Cl)cnc1CNC[C@@H]1CCC(=O)N1 [compound 53]
- IC50: 0.1 nM

SMILES: COc1nc(-c2cccc(-c3cccc(-c4cnc(CNC[C@H]5CCC[C@@H]5O)c(OC)n4)c3Cl)c2Cl)cnc1CNC[C@@H]1CCC(=O)N1 [compound 54]
- IC50: 0.18 nM

SMILES: COc1nc(-c2cccc(-c3cccc(-c4cnc(CNC[C@@H]5CCC(=O)N5)c(OC)n4)c3Cl)c2Cl)cnc1CNCC1CCCCO1 (some centres unmarked) [compound 55]
- IC50: 0.26 nM

SMILES: COc1nc(-c2cccc(-c3cccc(-c4cnc(CNC[C@@H]5CCC(=O)N5)c(OC)n4)c3Cl)c2Cl)cnc1CNCC1CCC(C(N)=O)O1 (some centres unmarked) [compound 56]
- IC50: 0.09 nM

SMILES: CNc1nc(-c2cccc(-c3cccc(-c4cnc(CNC[C@H]5C[C@H](O)C5)c(NC)n4)c3Cl)c2Cl)cnc1CNC[C@H]1C[C@H](O)C1 [compound 57]
- IC50: 8.78 nM

SMILES: CNc1nc(-c2cccc(-c3cccc(-c4cnc(CN)c(NC)n4)c3Cl)c2Cl)cnc1CN [compound 58]
- IC50: 6.76 nM

SMILES: CNc1nc(-c2cccc(-c3cccc(-c4cnc(CN5CC6(C5)CN(C(C)=O)C6)c(OC)n4)c3Cl)c2Cl)cnc1CN1CC2(C1)CN(C(C)=O)C2 [compound 59]
- IC50: 0.1 nM

SMILES: CNc1nc(-c2cccc(-c3cccc(-c4cnc(CN5CC(O)C5)c(OC)n4)c3Cl)c2Cl)cnc1CN1CC(O)C1 [compound 60]
- IC50: 0.14 nM

SMILES: CNc1nc(-c2cccc(-c3cccc(-c4cnc(CN5CC6(CNC(=O)C6)C5)c(OC)n4)c3Cl)c2Cl)cnc1CN1CC2(CNC(=O)C2)C1 [compound 61]
- IC50: 0.07 nM

SMILES: CNc1nc(-c2cccc(-c3cccc(-c4cnc(CN5CC6(CCC(=O)N6)C5)c(OC)n4)c3Cl)c2Cl)cnc1CN1CC2(CCC(=O)N2)C1 [compound 62]
- IC50: 0.16 nM

SMILES: CNc1nc(-c2cccc(-c3cccc(-c4cnc(CNC[C@@H]5CCC(=O)N5)c(OC)n4)c3Cl)c2Cl)cnc1CNC[C@@H]1CCC(=O)N1 [compound 63]
- IC50: 2.99 nM

SMILES: CCNc1nc(-c2cccc(-c3cccc(-c4cnc(CN5CC6(C5)CN(C(C)=O)C6)c(NCC)n4)c3Cl)c2Cl)cnc1CN1CC2(C1)CN(C(C)=O)C2 [compound 65]
- IC50: 0.165 nM

SMILES: CCNc1nc(-c2cccc(-c3cccc(-c4cnc(CN5CC(O)C5)c(NCC)n4)c3Cl)c2Cl)cnc1CN1CC(O)C1 [compound 66]
- IC50: 0.61 nM

SMILES: CCNc1nc(-c2cccc(-c3cccc(-c4cnc(CN5CC6(CNC(=O)C6)C5)c(NCC)n4)c3Cl)c2Cl)cnc1CN1CC2(CNC(=O)C2)C1 [compound 67]
- IC50: 0.292 nM

SMILES: CCNc1nc(-c2cccc(-c3cccc(-c4cnc(CN5CC6(CCC(=O)N6)C5)c(NCC)n4)c3Cl)c2Cl)cnc1CN1CC2(CCC(=O)N2)C1 [compound 68]
- IC50: 0.403 nM

SMILES: CNc1nc(-c2cccc(-c3cccc(-c4cnc(CN5CC(F)C5)c(NC)n4)c3Cl)c2Cl)cnc1CN1CC(F)C1 [compound 69]
- IC50: 2.62 nM

SMILES: CNc1nc(-c2cccc(-c3cccc(-c4cnc(CN5CCCC5)c(NC)n4)c3Cl)c2Cl)cnc1CN1CCCC1 [compound 70]
- IC50: 0.784 nM

SMILES: CNc1nc(-c2cccc(-c3cccc(-c4cnc(CN(C)C)c(NC)n4)c3Cl)c2Cl)cnc1CN(C)C [compound 71]
- IC50: 0.081 nM

SMILES: CNc1nc(-c2cccc(-c3cccc(-c4cnc(CN5CCC5)c(NC)n4)c3Cl)c2Cl)cnc1CN1CCC1 [compound 72]
- IC50: 0.198 nM

SMILES: CNCc1ncc(-c2cccc(-c3cccc(-c4cnc(CN5CCC5)c(NC)n4)c3Cl)c2Cl)nc1NC [compound 73]
- IC50: 0.37 nM

SMILES: CNCc1ncc(-c2cccc(-c3cccc(-c4cnc(CNC)c(NC)n4)c3Cl)c2Cl)nc1NC [compound 74]
- IC50: 1.34 nM

SMILES: CNc1nc(-c2cccc(-c3cccc(-c4cnc(CN5CC(OC)C5)c(NC)n4)c3Cl)c2Cl)cnc1CN1CC(OC)C1 [compound 75]
- IC50: 0.877 nM

SMILES: CNc1nc(-c2cccc(-c3cccc(-c4cnc(CN5CC6(C5)CN(C(C)=O)C6)c(NC)n4)c3Cl)c2Cl)cnc1CN1CC2(C1)CN(C(C)=O)C2 [compound 76]
- IC50: 0.09 nM

SMILES: CNc1nc(-c2cccc(-c3cccc(-c4cnc(CN5CC(O)C5)c(NC)n4)c3Cl)c2Cl)cnc1CN1CC(O)C1 [compound 77]
- IC50: 0.192 nM

SMILES: CNc1nc(-c2cccc(-c3cccc(-c4cnc(CN5CC6(CNC(=O)C6)C5)c(NC)n4)c3Cl)c2Cl)cnc1CN1CC2(CNC(=O)C2)C1 [compound 78]
- IC50: 0.064 nM

SMILES: CNc1nc(-c2cccc(-c3cccc(-c4cnc(CN5CC6(CCC(=O)N6)C5)c(NC)n4)c3Cl)c2Cl)cnc1CN1CC2(CCC(=O)N2)C1 [compound 79]
- IC50: 0.292 nM

SMILES: CNc1nc(-c2cccc(-c3cccc(-c4cnc(CNC[C@@H]5CCC(=O)N5)c(NC)n4)c3Cl)c2Cl)cnc1CNC[C@@H]1CCC(=O)N1 [compound 80]
- IC50: 0.36 nM
